In brackets after ≈: the same amount, converted by molar mass. Several values for one entry are separate records, joined by “and”; a condition that tells them apart may be missing. Equal values may be shown once. Read-outs that look alike come from different tables or passages of the source.
Legend:
VRE = test: Broth microdilution MIC, Example 7 (NCL812 and analogues); assay type: cell-based, Enterococcus spp.; settings: for MIC: Enterococcus; for MIC / VRE: VRE; for activity against VRE among analogues: MIC testing, two VRE strains; for MIC (μg/ml) at 24 hours, VRE 1: isolate VRE 1; for MIC (μg/ml) at 24 hours, VRE 1 / MIC (μg/ml) at 24 hours, VRE 2: 1st and 2nd replicate rows; for MIC (μg/ml) at 24 hours, VRE 2: isolate VRE 2
How it was run: (§1)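 Turbidity read visually and then at 600 nm defined the MIC (μg/ml), comparing drug-containing wells with a growth-control well lacking antimicrobial. Testing followed the CLSI broth microdilution method, in duplicate, using two strains per organism group.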

[1] = Bioassay ranking of the analogues tested; settings: M + R (MRSA and VRE combined)
MRSA = test: Broth microdilution MIC, Example 7 (NCL812 and analogues); assay type: cell-based, Staphylococcus aureus; settings: for activity against MRSA among analogues: MIC testing, two MRSA strains; for MIC: Staphylococcus aureus; for MIC / MRSA: MRSA; for MIC (μg/ml) at 24 hours, MRSA 1: isolate MRSA 1
How it was run: as §1

Pseudomonas aeruginosa = test: as above; assay type: cell-based; settings: for MIC: Pseudomonas aeruginosa, 24 h; for MIC (μg/ml) at 24 hours, P. aeruginosa: 1st and 2nd replicate rows
Escherichia coli = test: as above; assay type: cell-based; settings: 24 hours; for MIC: Escherichia coli, E. coli; for MIC (μg/ml) at 24 hours, E. coli: 1st and 2nd replicate rows
[2] = bioassay ranking, read-out: MRSA
[3] = 24 hours, 1st and 2nd replicate rows
[4] = isolate MRSA 2, 24 hours, 1st and 2nd replicate rows

| Compound | activity against VRE among analogues (VRE) | M + R [1] [µg/mL] | activity against MRSA among analogues (MRSA) | VRE (VRE; bioassay ranking) [µg/mL] | MRSA (MRSA; bioassay ranking) [µg/mL] | further results |
| --- | --- | --- | --- | --- | --- | --- |
| Nc1nc(N/N=C/c2ccc(C(F)(F)F)cc2)cc(N/N=C/c2ccc(C(F)(F)F)cc2)n1 [NCL221] | greatest activity | 33.5 | greatest activity |  |  | MIC (VRE; 24 h, read-out: MIC (μg/ml) at 24 hours VRE 1, VRE 1, 24 hours): 64 µg/mL (≈ 137 µM); MIC (VRE; 24 h, read-out: MIC (μg/ml) at 24 hours VRE 2, VRE 2, 24 hours): 64 µg/mL (≈ 137 µM); MIC (MRSA; 24 h, read-out: MIC (μg/ml) at 24 hours MRSA 1, MRSA 1, 24 hours): 4 µg/mL (≈ 8.56 µM); MIC (MRSA; 24 h, read-out: MIC (μg/ml) at 24 hours MRSA 2, MRSA 2, 24 hours): 2 µg/mL (≈ 4.28 µM); MIC (MRSA; [2]): 3 µg/mL (≈ 6.42 µM); MIC (Pseudomonas aeruginosa; read-out: MIC (μg/ml) at 24 hours P. aeruginosa, P. aeruginosa, 24 hours): > 128 µg/mL; MIC (Escherichia coli; read-out: MIC (μg/ml) at 24 hours E. coli): > 128 µg/mL |
| Cl.N=C(N/N=C/c1ccc(C(F)(F)F)cc1)N/N=C/c1ccc(C(F)(F)F)cc1 [NCL035] | greatest activity | 10.5 | greatest activity | 5 | 16 | MIC (μg/ml) at 24 hours, VRE 1 (VRE; 24 hours): 8 µg/mL and 4 µg/mL; MIC (μg/ml) at 24 hours, VRE 2 (VRE; 24 hours): 4 µg/mL; MIC (μg/ml) at 24 hours, MRSA 1 (MRSA; [3]): 16 µg/mL; MIC (μg/ml) at 24 hours, MRSA 2 (MRSA; [4]): 16 µg/mL; MIC (μg/ml) at 24 hours, P. aeruginosa (Pseudomonas aeruginosa; 24 hours): >128 µg/mL; MIC (μg/ml) at 24 hours, E. coli (Escherichia coli): >128 µg/mL |
| Cc1ccccc1C=NNC(=N)NN=Cc1ccccc1C.Cl [NCL039] | greatest activity | 30 | greatest activity | 20 |  | MIC (μg/ml) at 24 hours, VRE 1 (VRE; 24 hours): 32 µg/mL; MIC (μg/ml) at 24 hours, VRE 2 (VRE; 24 hours): 8 µg/mL; MIC (μg/ml) at 24 hours, MRSA 1 (MRSA; [3]): 32 µg/mL and 64 µg/mL; MIC (μg/ml) at 24 hours, MRSA 2 (MRSA; [4]): 32 µg/mL; MIC (μg/ml) at 24 hours, P. aeruginosa (Pseudomonas aeruginosa; 24 hours): >128 µg/mL and >188 µg/mL; MIC (μg/ml) at 24 hours, E. coli (Escherichia coli): >128 µg/mL |
| Cl.N=C(N/N=C/c1ccc(Cl)cc1)N/N=C/c1ccc(Cl)cc1F [NCL084] | greatest activity | 3 | greatest activity |  |  | MIC (VRE; 24 h, read-out: MIC (μg/ml) at 24 hours, VRE 1, VRE 1, 24 hours, duplicate lines per compound): 2 µg/mL; MIC (VRE; 24 h, read-out: MIC (μg/ml) at 24 hours, VRE 2, VRE 2, 24 hours, duplicate lines per compound): 2 µg/mL; MIC (VRE; bioassay ranking, read-out: VRE): 2 µg/mL; MIC (μg/ml) at 24 hours, MRSA 2 (MRSA; MRSA 2, 24 hours, duplicate lines per compound): 4 µg/mL; MIC (MRSA; 24 h, read-out: MIC (μg/ml) at 24 hours, MRSA 1, MRSA 1, 24 hours, duplicate lines per compound): 2 µg/mL; MIC (MRSA; 24 h, read-out: MIC (μg/ml) at 24 hours, MRSA 2, MRSA 2, 24 hours, duplicate lines per compound): 8 µg/mL; MIC (MRSA; [2]): 4 µg/mL; MIC (Pseudomonas aeruginosa; read-out: MIC (μg/ml) at 24 hours, P. aeruginosa, 24 hours, duplicate lines per compound): > 128 µg/mL; MIC (Escherichia coli; read-out: MIC (μg/ml) at 24 hours, duplicate lines per compound): > 128 µg/mL |
| Cl.N=C(NN=Cc1ccc2[nH]ccc2c1)NN=Cc1ccc2[nH]ccc2c1 [NCL146] | greatest activity | 14 | greatest activity | 16 | 12 |  |
| Cl.N=C(NN=Cc1ccc(Cl)cc1O)NN=Cc1ccc(Cl)cc1O [NCL174] | greatest activity | 25 | greatest activity | 18 | 32 |  |
| C/C(=N\NC(=N)N/N=C(\C)c1ccc(Br)cc1)c1ccc(Br)cc1.Cl [NCL155] | greatest activity | 10 | greatest activity | 12 | 8 |  |
| Cl.[H]/N=C(/N)NN=C(CNN)c1ccc(Cl)cc1 [NCL190] | greatest activity | 28 | greatest activity | 32 | 24 |  |
| CC(O)Nc1cc(Cl)ccc1C=NNC(=N)NN=Cc1ccc(Cl)cc1NC(C)O.Cl (stereo not drawn) [NCL168] | greatest activity | 40 | greatest activity |  |  |  |

Reference: US10253002B2, “Compounds and methods of treating infections” (Neoculi Pty Ltd., priority 2013, dated 2019)
